Test results as given in publication PMC9923724, “Half sandwich-type osmium, ruthenium, iridium and rhodium complexes with bidentate glycosyl heterocyclic ligands induce cytostasis in platinum-resistant ovarian cancer cells and bacteriostasis in Gram-positive multiresistant bacteria” (Frontiers in Chemistry, 2023).
“And” between values parts separate entries of the source, which are not always exact repeats. Equal values may be shown once.

How the values were obtained:
Type in all cases: cell-based
[1] = tested on: primary dermal fibroblasts; assay: SRB assay (48 h) on primary fibroblasts; details: primary human dermal fibroblasts
Description: (§1) 3 × 10^3 A2780 cells, 2 × 10^3 ID8 cells and 4 × 10^3 primary fibroblasts were plated to 96 well plates. Cells were treated with the compounds in the concentrations indicated for either 4 h for an MTT assay or for 48 h for an SRB assay. Data is represented as average ± SD, from three biological replicates; individual assays were performed in duplicates. Values were normalized for vehicle treated cells, absorbance for vehicle treated cells equals to 1. Statistical significance was assessed using two-way ANOVA test comparing the free ligand and each complex as a complex-ligand pair. Before the test normality was assessed using the D’Agostino-Pearson test. The ID8 SRB Ir-7+L-7 dataset had lognormal distribution. […] All other datasets had normal distribution. For better visibility the p values are presented in an excel sheet at https://figshare.com/s/2c942a812caea8869a67. Non-linear regression was performed on the A2780 SRB and the ID8 SRB datasets.
Human primary dermal fibroblasts were cultured in low glucose DMEM (1 g/L glucose) medium supplemented with 20% fetal calf serum, 2 mM glutamine, 1% penicillin-streptomycin.
(§2) The assay was performed similar to ([Kovács et al., 2019]). Cells were seeded in 96 well plates the day before the assay. Cells were treated with the compounds for 48 h. Cells were fixed with 10% trichloroacetic acid (TCA). Fixed cells were washed in distilled water 3 times followed by staining with SRB (0.4 m/V% dissolved in 1% acetic acid) for 10 min. Stained cells were washed in 1% acetic acid 5 times; acetic acid was removed and cells were left to dry. Protein-bound SRB was released by adding 100 µl 10 mM Tris base. Plates were measured in a plate photometer (Thermo Scientific Multiscan GO spectrophotometer, Waltham, MA, United States) at 540 nm. On each plate wells were designed to contain vehicle-treated cells. In calculations the readings for these wells was considered as 1 and all readings were expressed relative to these values.

ID8 ovarian cancer cells [2] = assay: MTT reduction assay (4 h) on ID8 cells
Description: as §1
(§3) ID8 cells were cultured in high glucose DMEM (4.5 g/L glucose) medium supplemented with 4% fetal calf serum, 2 mM glutamine, 1% penicillin-streptomycin, 1% ITS supplement (I3146).
MTT reduction assay measures the activity of mitochondrial complex I and can be used to detect toxicity ([Virág et al., 1998]; [Henslee et al., 2016]). The assay was performed similar to ([Bakondi et al., 2003]). Briefly, cells were plated in 96 well plates the day before the assay. Cells were treated with the compounds for 4 h, then MTT was added in 0.5 mg/ml final concentration and cells were incubated at 37°C in a cell incubator. Culture media was removed and the reduced MTT dye was dissolved in dimethyl-sulfoxide (DMSO) and plates were measured in a plate photometer (Thermo Scientific Multiscan GO spectrophotometer, Waltham, MA, United States) at 540 nm. On each plate wells were designed to contain untreated/vehicle-treated cells. In calculations the readings for these wells was considered as 1 and all readings were expressed relative to these values.

ID8 ovarian cancer cells [3] = assay: SRB assay (48 h) on ID8 cells
Description: as §1, §3, §2
(§4) Statistical analysis was performed using 8.0.1 version of Graphpad Prism. Values were tested for normal distribution using the D’Agostino and Pearson normality test. When necessary, values were log normalized or were normalized using the Box-Cox normalization method ([Box and Cox, 1964]) as indicated in the figure captions. Non-linear regression was performed using the built-in “[Inhibitor] vs. response—Variable slope (four parameters), least square fit” utility of Graphpad that yielded IC50 and Hill slope values.

Saos osteosarcoma cells = assay: SRB assay (48 h) on Saos cells
Description: 3 × 10^3 Capan2 cells, 2 × 10^3 Saos cells and 8 × 10^3 L428 were plated to 96 well plates. Cells were treated with the compounds in the concentrations for 48 h. Then for Capan2 and Saos SRB assay was performed, L428 cells were counted using a Burker chamber. Data is represented as average ± SD, from three biological replicates; individual assays were performed in duplicates. Values were normalized for vehicle treated cells, absorbance for vehicle treated cells equals to 1. Normality was checked using the Shapiro-Wilk test. The Saos Os-7 dataset was normalized using the Box-Cox method, other datasets had normal distribution. Each complex was individually assessed for statistical significance using One-way ANOVA test followed by Dunnett’s post hoc test; all values were compared to the values of the lowest concentration. For better visibility the p values are presented in an excel sheet at https://figshare.com/s/2c942a812caea8869a67. Non-linear regression was performed on the Capan2 and Saos datasets.
Saos cells were maintained in DMEM (4.5 g/L glucose) medium supplemented with 10% fetal calf serum, 2 mM glutamine, 1% penicillin-streptomycin.
as §2, §4

A2780 cells = assay: Annexin V - propidium iodide double staining, flow cytometry; details: 2 h, complexes at their IC50 (Ru-7 0.846 μM, Os-7 0.578 µM, Ir-7 0.891 µM)
Text: We verified the toxic effects of the active Ru, Os and Ir complexes by Annexin V-FITC propidium iodide (PI) double staining. The complexes were applied in concentrations corresponding to their respective IC50 values and we have not detected increases in the apoptotic (Annexin V positive population) or the necrotic (PI positive and Annexin V—PI double positive populations) as opposed to the hydrogen peroxide-treated cells used as positive control (Figure 6).
Cells were then stained with Annexin V and propidium iodide (PI) and cells were subjected to flow cytometry as described in Materials and Methods. The percent of cells in the quadrants are plotted. Data is represented as average ± SD, from three biological replicates, individual assays were performed in duplicates. Normal distribution was achieved by Box-Cox normalization of the data. Statistical significance was determined using a two-way ANOVA test, all measurement points were compared with each other. * indicate statistically significant differences between vehicle-treated (control) and treated cells (complexes or 300 µM H2O2) corresponding to the same quadrant (e.g., vehicle-treated double negative cells vs. H2O2-treated double negative cells) at p <0.05.
The proportions of dead cells was assessed using the Annexin V—propidium iodide assay and was measured using flow cytometry using BD FacsCalibur (BD Biosciences, Franklin Lakes, NJ, United States) instrument and the FITC Annexin V/Dead Cell Apoptosis kit (Life Technologies, Eugene, OR, United States) according to the manufacturer’s instructions similar to ([Bai et al., 2001]). Quadrants were set based on the FITC and PI values observed for the vehicle-treated cells. Ten thousand cells were measured and the percent in the quadrants was used for the subsequent calculation.

Row | Structure (SMILES) | Fibroblast SRB Max. (maximal inhibition) [1] | ID8 MTT Max. (maximal inhibition) (ID8 ovarian cancer cells [2]) | IC50 (ID8 ovarian cancer cells [3]) | ID8 SRB IC50 (ID8 ovarian cancer cells [3]) | ID8 SRB Max. (maximal inhibition) (ID8 ovarian cancer cells [3]) | IC50 (Saos osteosarcoma cells) | SAOS SRB Max. (maximal inhibition) (Saos osteosarcoma cells) | induction of cell death (apoptotic / necrotic populations) (A2780 cells)
1 | Cc1c(C)c(C)[c-](C)c1C.F[P-](F)(F)(F)(F)F.O=C(OCC1OC(n2cc(-c3ccc4ccccc4n3)nn2)C(OC(=O)c2ccccc2)C(OC(=O)c2ccccc2)C1OC(=O)c1ccccc1)c1ccccc1.[Cl][Ir+2] (mixture of isomers) [Ir-7] | 42.83% | 19.23% | 799 nM | submicromolar or low micromolar | >90% | 1580 nM | 33% | do not induce cell death
2 | Cc1ccc(C(C)C)cc1.F[P-](F)(F)(F)(F)F.O=C(OCC1OC(n2cc(-c3ccc4ccccc4n3)nn2)C(OC(=O)c2ccccc2)C(OC(=O)c2ccccc2)C1OC(=O)c1ccccc1)c1ccccc1.[Cl][Os+] (mixture of isomers) [Os-7] | 48.94% | 75% and 74.90% | 359 nM | submicromolar or low micromolar | >90% | 1290 nM | 48.04% | do not induce cell death
3 | Cc1ccc(C(C)C)cc1.F[P-](F)(F)(F)(F)F.O=C(OCC1OC(n2cc(-c3ccc4ccccc4n3)nn2)C(OC(=O)c2ccccc2)C(OC(=O)c2ccccc2)C1OC(=O)c1ccccc1)c1ccccc1.[Cl][Ru+] (mixture of isomers) [Ru-7] | 50.04% | 32.56% | 1140 nM | submicromolar or low micromolar | >90% | 1180 nM | 33.64% | do not induce cell death
